Columns and labels:
[1] = tested on: EPO mRNA; assay: mRNA encapsulation rate of EPO mRNA-encapsulating lipid particles; format: physicochemical; conditions: lipid/nucleic acid 64 wt/wt
Procedure: (§1) The compounds described in Table 1, the neutral lipid, cholesterol (product name: Cholesterol HP; NIPPON FINE CHEMICAL CO., LTD.), and 1,2-dimyristoyl-rac-glycero-3-(methylpolyoxyethylene 2000) (hereinafter, called DMG-PEG2000) (product name: SUNBRIGHT® GM-020; NOF corporation) were dissolved in ethanol at a molar ratio in Table 1 such that the total lipid concentration became 20 mmol/L, thereby obtaining an oil phase.
(§2) As the neutral lipid, 1,2-distearoyl-sn-glycero-3-phosphocholine (product name: COATSOME® MC-8080; NOF corporation) (hereinafter, DSPC), or L-α-dioleoyl phosphatidylethanolamine (Hereinafter, DOPE) (product name: COATSOME® ME-8181; NOF corporation), or 1,2-dioleoyl-sn-glycero-3-phosphocholine (hereinafter, DOPC) (product name: COATSOME® MC-8181; NOF corporation) was used.
(§3) EPO mRNA (product name: CleanCap EPO mRNA (5moU); TriLink) was diluted with 50 mmol/L citrate buffer having a pH 4 such that the weight ratio of total lipid concentration to mRNA concentration is about 16:1 to 64:1, thereby obtaining a water phase. Then, the water phase and the oil phase were mixed together using NanoAssemblr (Precision NanoSystems) such that the volume ratio of water phase:oil phase was 3:1, and the mixed solution was 1.5-fold diluted with phosphate buffered saline (PBS), thereby obtaining a dispersion liquid of mRNA lipid particles. The dispersion liquid was dialyzed with a 10% aqueous sucrose solution using a dialysis cassette (Slide-A-Lyzer G2, MWCO: 10 kD, Thermo Fisher Scientific) to remove ethanol, thereby obtaining EPO mRNA-encapsulating lipid particles.
(§4) 15 to 30 μL of a 3 mol/L aqueous sodium acetate solution and 4.5 to 9 μL of glycogen were added to 30 to 60 μL of the lipid particles retaining mRNA, and 0.75 to 1.5 mL of ethanol was added thereto, so that only the nucleic acids were precipitated while the lipid was dissolved. Then, the supernatant was removed by centrifugation. The precipitates were air-dried for 15 minutes or longer, then water was added thereto to redissolve the precipitates, and the concentration thereof was measured using Nanodrop NF1000 (Thermo Fisher Scientific), thereby quantifying the total mRNA concentration.
(§5) The mRNA concentration was quantified using a Quant-iT RiboGreen RNA Assay Kit (Thermo Fisher Scientific) according to the protocol. First, a 20×TE buffer included in the above-described kit was diluted with water, thereby obtaining a 1×TE buffer. TE represents Tris/EDTA (ethylenediaminetetraacetic acid). In order to quantify only mRNA in the outer water phase, the dispersion liquid of lipid particles retaining mRNA was 10,000-fold diluted with the 1×TE buffer. 100 μL of the 10,000-fold diluted dispersion liquid of lipid particles was put into a 96-well plate, then 100 μL of a RiboGreen reagent (reagent included in the Quanti-iT Ribogreen RNA Assay Kit described above) 2,000-fold diluted with the 1×TE buffer was added to a sample, and fluorescence (excitation wavelength: 485 nm, fluorescence wavelength: 535 nm) was measured using a plate reader Infinite F200 (TECAN), thereby quantifying the mRNA concentration in the outer water phase.
(§6) By using the quantification results of the total mRNA concentration and the mRNA concentration in the outer water phase that were obtained through the above steps, the mRNA encapsulation rate of the mRNA lipid particles was calculated according to the following Equation.
(§7) mRNA encapsulation rate (%)=(total mRNA concentration-mRNA concentration in outer water phase)/total mRNA concentration×100

[2] = tested on: FLuc mRNA; assay: mRNA encapsulation rate of FLuc mRNA-encapsulating lipid particles; format: physicochemical; conditions: aminolipid 45 / DOPE 10 / cholesterol 43.5 / DMG-PEG2000 1.5 mol %, lipid/nucleic acid 32 wt/wt
Procedure: (§8) The compounds described in Table 2, the neutral lipid, cholesterol (product name: Cholesterol HP; NTPPON FINE CHEMICAL CO., LTD.), and 1,2-dimyristoyl-rac-glycero-3-(methylpolyoxyethylene 2000) (hereinafter, called DMG-PEG2000) were dissolved in ethanol at a molar ratio in Table 2 such that the total lipid concentration became 20 mmol/L, thereby obtaining an oil phase.
(§9) As the neutral lipid, 1,2-distearoyl-sn-glycero-3-phosphocholine (product name: COATSOME® MC-8080; NOF corporation) was used in a case of Comparative Example 1, and L-α-dioleoylphosphatidylethanolamine (product name: COATSOME® MC-8181; NOF corporation) was used in a case other than Comparative Example 1.
as §3, with “FLuc” for “EPO”, “(5 moU);” for “(5moU);”, “19:1” for “16:1”, “64:1,” for “64:1, thereby”
as §4, §5, §6, §7

[3] = tested on: human EPO; assay: Measurement of EPO enzyme activity (EPO protein in blood plasma of mice after intravenous administration of EPO mRNA lipid particles); format: in vivo; conditions: C57BL/6J mice, tail-vein i.v., mRNA 0.1 mg/kg, plasma 20 to 24 hours, lipid/nucleic acid 64 wt/wt
Procedure: as §1, §2, §3
The dispersion liquid of mRNA lipid particles prepared in above-described <Preparation of EPO mRNA-encapsulating lipid particles> was tail-vein intravenously administered to C57BL/6J mice at a mRNA dosage of 0.1 mg/kg. 20 to 24 hours after the administration, blood was collected from the caudal vena cava, thereby obtaining blood plasma. The human EPO enzyme activity was quantified by using the obtained blood plasma and ab119522 Erythropoietin (EPO) Human Elisa Kit (Abcam.plc). The quantitative value is described as a relative amount of EPO protein in a case where Comparative Example 1 is 1.

[4] = Particle size of EPO mRNA-encapsulating lipid particles; format: physicochemical; conditions: lipid/nucleic acid 64 wt/wt
Procedure: as §1, §2, §3
(§10) The particle size of the mRNA-encapsulating lipid particles was measured by 10-fold diluting the dispersion liquid of lipid particle with phosphate buffered saline (PBS) using Zeta-potential & Particle size Analyzer ELS-Z2 (Otsuka Electronics Co., Ltd.).

[5] = Particle size of FLuc mRNA-encapsulating lipid particles; format: physicochemical; conditions: aminolipid 45 / DOPE 10 / cholesterol 43.5 / DMG-PEG2000 1.5 mol %, lipid/nucleic acid 32 wt/wt
Procedure: as §8, §9
as §3, with “FLuc” for “EPO”, “(5 moU);” for “(5moU);”, “19:1” for “16:1”, “64:1,” for “64:1, thereby”
as §10

[6] = aminolipid 50 / DOPE 10 / cholesterol 38.5 / DMG-PEG2000 1.5 mol %
[7] = aminolipid 45 / DOPE 10 / cholesterol 43.5 / DMG-PEG2000 1.5 mol %

| SMILES | Nucleic acid encapsulation rate [1, 6] [%] | Nucleic acid encapsulation rate [2] [%] | Particle size [4, 6] [nm] | Particle size [5] [nm] | Nucleic acid encapsulation rate [1, 7] [%] | Particle size [4, 7] [nm] | Relative amount of EPO protein (with respect to Comparative Example 1) [3, 6] | Relative amount of EPO protein (with respect to Comparative Example 1) [3, 7] |
| --- | --- | --- | --- | --- | --- | --- | --- | --- |
| CCCCCC(CCCCC)COC(=O)CCCC(CCCC)OC(=O)OCCN(CCOC(=O)OC(CCCC)CCCC(=O)OCC(CCCCC)CCCCC)CCN(CC)CC (stereo not drawn) [Example 22, Bis(2-pentylheptyl) 5,17-dibutyl-11-(2-(diethylamino)ethyl)-7,15-dioxo-6,8,14,16-tetraoxa-11-azahenicosanedioate] | 98.6 | 98.7 | 78.3 | 95 | – | – | 4.69 | – |
| CCCCCCCCCOC(=O)CCCC(CCCC(=O)OCCCCCCCCC)OC(=O)OCCN(CCOC(=O)OC(CCCC(=O)OCCCCCCCCC)CCCC(=O)OCCCCCCCCC)CCN(CC)CC [Example 34, Dinonyl 11-(2-(diethylamino)ethyl)-5,17-bis(4-(nonyloxy)-4-oxobutyl)-7,15-dioxo-6,8,14,16-tetraoxa-11-azahenicosanedioate] | 100.0 | – | 99.2 | – | – | – | 1.20 | – |
| CCCCCCCOC(=O)CCC(CCC(=O)OCCCCCCC)OC(=O)OCCN(CCOC(=O)OC(CCC(=O)OCCCCCCC)CCC(=O)OCCCCCCC)CCN(CC)CC [Example 39, Diheptyl 10-(2-(diethylamino)ethyl)-4,16-bis(3-(heptyloxy)-3-oxopropyl)-6,14-dioxo-5,7,13,15-tetraox a-10-azanonadecanedioate] | 93.8 | 90.1 | 147.2 | 141.1 | – | – | 8.03 | – |

Continued, in another order:

| Nucleic acid encapsulation rate [1, 6] [%] | Nucleic acid encapsulation rate [2] [%] | Particle size [4, 6] [nm] | Particle size [5] [nm] | Nucleic acid encapsulation rate [1, 7] [%] | Particle size [4, 7] [nm] | SMILES | Relative amount of EPO protein (with respect to Comparative Example 1) [3, 6] | Relative amount of EPO protein (with respect to Comparative Example 1) [3, 7] |
| --- | --- | --- | --- | --- | --- | --- | --- | --- |
| 95.5 | – | 165.3 | – | – | – | CCCCCCOC(=O)CCCC(CCCC(=O)OCCCCCC)OC(=O)OCCN(CCOC(=O)OC(CCCC(=O)OCCCCCC)CCCC(=O)OCCCCCC)CCN(CC)CC [Example 32, Dihexyl 11-(2-(diethylamino)ethyl)-5,17-bis(4-(hexyloxy)-4-oxobutyl)-7,15-dioxo-6,8,14,16-tetraoxa-11-azahenicosanedioate] | 4.03 | – |
| 88.8 | – | 132.8 | – | – | – | CCCCCCCCOC(=O)CCCC(CCCC(=O)OCCCCCCCC)OC(=O)OCCN(CCOC(=O)OC(CCCC(=O)OCCCCCCCC)CCCC(=O)OCCCCCCCC)CCN(CC)CC [Example 33, Dioctyl 11-(2-(diethylamino)ethyl)-5,17-bis(4-(octyloxy)-4-oxobutyl)-7,15-dioxo-6,8,14,16-tetraoxa-1 1-azahenicosanedioate] | 2.70 | – |
| 100.0 | 99.7 | 101.4 | 116 | – | – | CCCCCCCOC(=O)CCCC(CCCC(=O)OCCCCCCC)OC(=O)OCCN(CCCN(CC)CC)CCOC(=O)OC(CCCC(=O)OCCCCCCC)CCCC(=O)OCCCCCCC [Example 38, Diheptyl 11-(3-(diethylamino)propyl)-5,17-bis(4-(heptyloxy)-4-oxobutyl)-7,15-dioxo-6,8,14,16-tetraox a-11-azahenicosanedioate] | 2.13 | – |
| – | – | – | – | 98.9 | 128.2 | CCCCCCCCOC(=O)CCCC(CCCC(=O)OCCCCCCCC)OC(=O)OCCN(CCOC(=O)OC(CCCC(=O)OCCCCCC)CCCC(=O)OCCCCCC)CCN(CC)CC [Example 42] | – | 4.28 |
